Oligonucleotides are written 5' to 3', each unit as a sugar letter and its base; * is a phosphorothioate linkage, no mark a phosphodiester; rarer units and linkages stand in square brackets, end groups in braces. Plain capitals give the bases only. e = 2'-O-(2-methoxyethyl) (MOE); l = locked nucleic acid (LNA); [5mC] = 5-methylcytosine
System: mGrn mRNA
Assay: mGrn mRNA qPCR in Neuro2a cells transfected with ASOs
Format: cell-based, mouse
Conditions: for mGRN mRNA FC: Table 14, 100 nM, 48 hours, normalized to sNTC3; for 40 nM FC (mGrn mRNA) / 80 nM FC (mGrn mRNA) / 160 nM FC (mGrn mRNA): transfection
Method: 57 ASOs targeting the Grn promoter (− strand) were screened in Neuro2a cells. Neuro2a cells were transfected with 100 nM of each of the ASOs listed in Table 14 and cells were harvested 48 hours later for Grn mRNA quantification using qPCR. Housekeeping genes for normalization were Gapdh and Ppia. Relative Grn mRNA levels were normalized to mRNA extracted from cells treated with sNTC3 (steric nontargeting control).
Next, 26 ASOs based on parent ASOs CO-3544 and CO-3595 were designed with different modifications and base walking. Neuro2a cells were transfected with either […] or 160 nM of each of the ASOs listed in Table 15, and cells were harvested 48 hours later for mGrn mRNA quantification using qPCR. As controls, cells were treated with sNTC3 or no ASO. Housekeeping genes for normalization were Gapdh and Ppia. Relative Grn mRNA levels were normalized to mRNA extracted from cells treated with sNTC3.
CO-3544 was modified to include PO/PS bonds and the efficacy in upregulating mGrn mRNA was determined.
Similarly, CO-3595 was modified to include varying PO/PS internucleotide bonds and the efficacy of these ASOs in upregulating mGrn mRNA was determined in Neuro2A cells.

Substance	mGRN mRNA FC (Neuro2a) [FC]	40 nM FC (mGrn mRNA) (Table 15, Neuro2a) [FC]	80 nM FC (mGrn mRNA) (Table 15, Neuro2a) [FC]	160 nM FC (mGrn mRNA) (Table 15, Neuro2a) [FC]	also measured
CO-3589: ASO targeting the Grn promoter (− strand) (antisense eT*eT*eT*e[5mC]*eA*eA*e[5mC]*e[5mC]*e[5mC]*eT*eT*eG*e[5mC]*eT*eA*eG*eA*eG*eG*e[5mC])	1.3	–	–	–	–
CO-3590: ASO targeting the Grn promoter (− strand) (antisense eT*eA*eA*eT*eG*e[5mC]*e[5mC]*e[5mC]*eT*eT*eA*eT*e[5mC]*eT*eT*eG*eA*eA*e[5mC]*eG)	1.2	–	–	–	–
CO-3591: ASO targeting the Grn promoter (− strand) (antisense e[5mC]*e[5mC]*eA*e[5mC]*e[5mC]*eA*eG*e[5mC]*e[5mC]*eT*eA*e[5mC]*eT*e[5mC]*e[5mC]*eA*e[5mC]*eA*eG*eG)	1.4	–	–	–	–
CO-3592: ASO targeting the Grn promoter (− strand) (antisense eG*eA*eA*eA*e[5mC]*e[5mC]*e[5mC]*e[5mC]*eT*eT*e[5mC]*e[5mC]*eA*eT*e[5mC]*eT*e[5mC]*eG*eA*e[5mC])	1.2	–	–	–	–
CO-3593: ASO targeting the Grn promoter (− strand) (antisense e[5mC]*eA*eT*eA*eA*e[5mC]*eA*eA*eT*eT*e[5mC]*e[5mC]*eT*e[5mC]*eG*eA*eA*eG*eG*eT)	1.1	–	–	–	–
CO-3594: ASO targeting the Grn promoter (− strand) (antisense e[5mC]*eA*eT*eG*eG*eT*e[5mC]*eT*e[5mC]*eT*eA*eT*eT*e[5mC]*eA*e[5mC]*e[5mC]*e[5mC]*eA*e[5mC])	1.6	–	–	–	–
CO-3595: ASO targeting the Grn promoter (− strand) (antisense e[5mC]*e[5mC]*eT*eG*eA*eA*e[5mC]*eT*eG*eT*eA*eT*eG*eG*e[5mC]*eT*eG*eA*e[5mC]*e[5mC])	2.3	–	–	–	mGrn mRNA upregulation (Neuro2a, dose-dependent, normalized to sNTC3 (FIG. 13)): ≤ 1.8 fold; 40 nM FC (mGrn mRNA) (Table 16, Neuro2A): 1.2 FC; 80 nM FC (mGrn mRNA) (Table 16, Neuro2A): 1.3 FC; 160 nM FC (mGrn mRNA) (Table 16, Neuro2A): 1.4 FC
CO-3596: ASO targeting the Grn promoter (− strand) (antisense e[5mC]*eT*e[5mC]*eT*eA*eT*eG*eT*eA*eA*eG*eA*e[5mC]*eT*e[5mC]*e[5mC]*e[5mC]*eA*e[5mC]*eT)	1.4	–	–	–	–
CO-3597: ASO targeting the Grn promoter (− strand) (antisense eA*e[5mC]*eA*eA*e[5mC]*e[5mC]*e[5mC]*eT*eG*e[5mC]*eA*eT*eG*e[5mC]*eA*e[5mC]*eT*e[5mC]*e[5mC]*eT)	1.2	–	–	–	–
CO-3598: ASO targeting the Grn promoter (− strand) (antisense eT*eA*eA*eG*eA*eA*eG*e[5mC]*e[5mC]*e[5mC]*eT*e[5mC]*eA*e[5mC]*eG*eG*eA*eA*eT*eT)	1.3	–	–	–	–
CO-3599: ASO targeting the Grn promoter (− strand) (antisense eA*eT*eG*eA*eT*eG*e[5mC]*eA*e[5mC]*e[5mC]*eA*eG*eT*e[5mC]*eT*eT*eA*e[5mC]*eA*e[5mC])	1.0	–	–	–	–
CO-3600: ASO targeting the Grn promoter (− strand) (antisense eG*eG*eA*eA*e[5mC]*eA*e[5mC]*e[5mC]*eT*eA*eT*eG*e[5mC]*eT*eA*eA*e[5mC]*eA*e[5mC]*e[5mC])	1.5	–	–	–	–
CO-4082: ASO based on parent ASOs CO-3544 and CO-3595, different modifications and base walking (antisense eG*eT*eT*e[5mC]*eT*l[5mC]*e[5mC]*e[5mC]*lT*eA*eG*l[5mC]*eT*eG*lT*eG*eT*eA*eG*eT)	–	1.4	1.6	1.4	–
CO-4083: ASO based on parent ASOs CO-3544 and CO-3595, different modifications and base walking (antisense e[5mC]*e[5mC]*eT*eG*eA*lA*e[5mC]*eT*lG*eT*eA*lT*eG*eG*l[5mC]*eT*eG*eA*e[5mC]*e[5mC])	–	–	–	–	40 nM FC (mGrn mRNA) (Table 16, Neuro2A): 1.3 FC; 80 nM FC (mGrn mRNA) (Table 16, Neuro2A): 1.4 FC; 160 nM FC (mGrn mRNA) (Table 16, Neuro2A): 1.6 FC
CO-5290: CO-3544 modified to include PO/PS bonds (antisense eG*eT*eTe[5mC]eTe[5mC]e[5mC]e[5mC]eTeAeGe[5mC]eTeGeTeGeT*eA*eG*eT)	–	1.1	1.0	1.0	–
CO-5291: CO-3544 modified to include PO/PS bonds (antisense eG*eT*eT*e[5mC]*eTe[5mC]e[5mC]e[5mC]eTeAeGe[5mC]eTeGeTeGeT*eA*eG*eT)	–	0.9	1.0	0.9	–
CO-5292: CO-3544 modified to include PO/PS bonds (antisense eG*eT*eT*e[5mC]*eT*e[5mC]*e[5mC]e[5mC]eTeAeGe[5mC]eTeGeTeGeT*eA*eG*eT)	–	1.1	1.1	1.1	–
CO-5293: CO-3544 modified to include PO/PS bonds (antisense GTTCTCCCTAGCTGTGTAGT; 2'-MOE, mixed PS/PO, 5-methylcytosine; listed as RNA; modified_base 1..9: mod_base = OTHER; note = Phosphorothioate linkage; modified_base 17..20: mod_base = OTHER; modified_base 1..20: mod_base = OTHER; note = 2'-O-(2-methoxyethyl) ribonucleotide; modified_base 4)	–	1.1	1.0	1.1	–
CO-5294: CO-3544 modified to include PO/PS bonds (antisense eG*eT*eT*e[5mC]*eT*e[5mC]*e[5mC]*e[5mC]*eT*eA*eGe[5mC]eTeGeTeGeT*eA*eG*eT)	–	1.1	1.1	1.3	–
CO-5295: CO-3544 modified to include PO/PS bonds (antisense eG*eT*eT*e[5mC]*eT*e[5mC]*e[5mC]*e[5mC]*eT*eA*eG*e[5mC]*eTeGeTeGeT*eA*eG*eT)	–	1.1	1.3	1.4	–
CO-5296: CO-3544 modified to include PO/PS bonds (antisense eG*eT*eTe[5mC]eTe[5mC]e[5mC]e[5mC]eTeAeGe[5mC]eTeGeTeG*eT*eA*eG*eT)	–	1.1	1.1	1.0	–
CO-5297: CO-3544 modified to include PO/PS bonds (antisense eG*eT*eTe[5mC]eTe[5mC]e[5mC]e[5mC]eTeAeGe[5mC]eTeG*eT*eG*eT*eA*eG*eT)	–	1.0	1.1	1.2	–
CO-5298: CO-3544 modified to include PO/PS bonds (antisense eG*eT*eTe[5mC]eTe[5mC]e[5mC]e[5mC]eTeAeGe[5mC]*eT*eG*eT*eG*eT*eA*eG*eT)	–	1.3	1.3	1.5	–
CO-5299: CO-3544 modified to include PO/PS bonds (antisense eG*eT*eTe[5mC]eTe[5mC]e[5mC]e[5mC]eTeA*eG*e[5mC]*eT*eGeT*eG*eT*eA*eG*eT)	–	1.2	1.3	1.5	–
CO-5300: CO-3544 modified to include PO/PS bonds (antisense eG*eT*eTe[5mC]eTe[5mC]e[5mC]e[5mC]*eT*eA*eG*e[5mC]*eT*eG*eT*eG*eT*eA*eG*eT)	–	1.3	1.4	1.4	–
CO-5301: CO-3544 modified to include PO/PS bonds (antisense lG*lT*eT*l[5mC]*lT*e[5mC]*l[5mC]*e[5mC]*lT*eA*lG*e[5mC]*lT*eG*lT*eG*lT*eA*lG*lT)	–	0.9	1.0	0.7	–
CO-5302: CO-3544 modified to include PO/PS bonds (antisense lG*lT*eT*l[5mC]*eT*l[5mC]*e[5mC]*l[5mC]*eT*lA*eG*l[5mC]*eT*lG*eT*lG*lT*eA*lG*lT)	–	1.3	1.2	1.0	–
